Measured values reported in patent US7482345B2, “P38 kinase inhibiting agents” (priority 2005, dated 2009).

Target: T1, Murine p38 (Mus musculus, UniProt P47811)
T1 construct: made in house; host or cells: Drosophila S2 cells (p38); E. coli (GST-ATF2)
Assay: p38 kinase assay
Format: biochemical
Conditions: illustrative Examples; table does not say which of 'the above assays'
Protocol: Murine p38 containing the FLAG epitope tag was expressed in Drosophila S2 cells under transcriptional control of a copper-inducible metallothionein promoter. Expression of recombinant p38 was induced by treating transfected cells with 1 mM CuSO4 for 4 hours. To generate active recombinant murine p38, CuSO4-treated S2 cells were stimulated 10 minutes prior to harvest with 400 mM NaCl, 2 mM Na3VO4, and 100 μg/L okadaic acid. Cell pellets were washed with phosphate-buffered saline, 2 mM Na3VO4, and lysed in 20 mM Tris HCl, pH 7.5, 120 mM NaCl, 1% Triton X-100, 2 mM EDTA, 20 mM NaF, 4 mM Na3VO4, 2 mM Prefabloc SC (Boehringer Mannheim). Cell lysates were centrifuged for 10 min at 13,000×g, and activated, recombinant murine p38 was immunoaffinity purified from the lysate by column chromatography through anti-FLAG M2 resin (Kodak) that had been equilibrated with lysis buffer. After loading the extract the resin was washed with 10 column volumes of lysis buffer, 10 column volumes buffer A (10 mM Tris HCl, pH 7.5, 500 mM NaCl, 20% glycerol) and 10 column volumes of buffer B (10 mM Tris HCl pH 7.5, 150 mM NaCl, 20% glycerol). The fusion protein was eluted in buffer B containing 100 μg/mL FLAG peptide (Kodak).
The N-terminal 115 amino acids of ATF-2 was expressed in E. coli as a fusion protein with glutathione-S-transferase. The fusion protein was purified over glutathione agarose according to standard procedures (Pharmacia).
p38 kinase assays were performed in a reaction volume of 100 μL in a 96-well plate, at 30° for […] under the following conditions: 25 mM Hepes, pH 7.4, 10 mMmgCl2, 20 mM β-glycerolphosphate, 2 mM DTT, 5 μM ATP, 10 μCi [γ-33P]-ATP and ˜2 μM GST-ATF2. Serial dilutions of compounds were added to each reaction in 2 μL DMSO. 2 μL of DMSO was added to the last row of each reaction plate as the no inhibitor control for each inhibitor titration. The reaction was terminated with an equal volume of a stop solution containing 100 mM EDTA and 15 mM sodium pyrophosphate. PVDF filter plates (MAIPNOB50, Millipore) were pre-wet with methanol and washed with the stop solution. 50 μL aliquots from a single reaction were applied to the filter under vacuum, and the filter was washed twice with 75 mM phosphoric acid. The filter plates were counted in a scintillation counter (Top Count, Packard) and the percent inhibition at each compound concentration is determined.

T1 sequence (P47811 whole entry): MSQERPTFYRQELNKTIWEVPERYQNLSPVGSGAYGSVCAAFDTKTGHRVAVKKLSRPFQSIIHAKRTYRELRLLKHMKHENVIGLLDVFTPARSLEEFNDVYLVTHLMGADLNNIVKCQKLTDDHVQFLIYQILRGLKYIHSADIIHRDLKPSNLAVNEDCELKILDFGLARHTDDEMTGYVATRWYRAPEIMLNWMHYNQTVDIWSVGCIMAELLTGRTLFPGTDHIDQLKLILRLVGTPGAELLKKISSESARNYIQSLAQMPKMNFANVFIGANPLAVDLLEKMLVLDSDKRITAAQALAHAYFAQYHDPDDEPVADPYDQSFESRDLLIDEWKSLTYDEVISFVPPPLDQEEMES

SMILES: COc1ccc(C(=O)N2CCCC2)cc1-c1c(=O)ccn2nc(Oc3ccc(F)cc3F)ccc12 [Example 4, 2-(2,4-difluorophenoxy)-5-[2-methoxy-5-(pyrrolidin-1-ylcarbonyl)phenyl]-6H-pyrido[1,2-b]pyridazin-6-one]
- IC50: 22 nM

SMILES: CCc1ccc(C(=O)N2CCCC2)cc1-c1c(=O)ccn2nc(Oc3ccc(F)cc3F)ccc12 [Example 14, 2-(2,4-difluorophenoxy)-5-[2-ethyl-5-(pyrrolidin-1-ylcarbonyl)phenyl]-6H-pyrido[1,2-b]pyridazin-6-one]
- IC50: 59 nM

SMILES: O=c1ccn2nc(NCc3ccc(F)cc3F)ccc2c1-c1c(F)cccc1F [Example 49]
- IC50: 710 nM

SMILES: O=c1ccn2cc(Sc3ccc(F)cc3F)ccc2c1-c1c(F)cccc1F [Example 52, 1-(2,6-difluorophenyl)-7-[(2,4-difluorophenyl)thio]-2H-quinolizin-2-one]
- IC50: 320 nM

SMILES: O=c1ccn2cc(Cc3ccc(F)cc3F)ccc2c1-c1c(F)cccc1F [Example 53, 7-(2,4-difluorobenzyl)-1-(2,6-difluorophenyl)-2H-quinolizin-2-one]
- IC50: 93 nM
